Blank lines part the entries; values can stand above or below the molecule they belong to.
Columns and labels:
5 HT4 receptor = 5 HT4 receptor (Homo sapiens, UniProt Q13639); conditions: stated for prior art compounds; cited from earlier work
conscious dogs = assay: Gastric emptying of an acaloric liquid test meal delayed by administration of lidamidine, in conscious dogs; format: in vivo, beagle dogs; conditions: gastric emptying of a liquid meal delayed by lidamidine in conscious dog; dose of 0.04 mg/kg of the test compound
Description: “Gastric Emptying of an Acaloric Liquid Test Meal Delayed by […] of Lidamidine, in Conscious Dogs” Test
Female beagle dogs, weighing 7-14 kg, were trained to stand quietly in Pavlov frames. They were implanted with a gastric cannula under general anaesthesia and aseptic precautions. After a median laparatomy, an incision was made through the gastric wall in the longitudinal direction between the greater and the lesser curve, 2 cm above the nerves of Latarjet. The cannula was secured to the gastric wall by means of a double purse string suture and brought out via a stab wound at the left quadrant of the hypochondrium. Dogs were allowed a recovery period of at least two weeks. […]
In the 1 ml samples of the gastric contents, the glucose concentrations were measured on a Hitachi 717 automatic analyser by the hexokinase method (Schmidt, 1961).
Curves were fitted to the measurement points (glucose vs time) using weighed non-linear regression analysis. Gastric emptying was quantified as the time needed to empty 70% of the meal (t70%). The control emptying time was calculated as the mean t70% of the last 5 solvent experiments of the same dog. Acceleration of delayed gastric emptying (Δt) was calculated as the time difference between t70% compound and t70% solvent. To correct for variations in emptying rate between dogs, Δt was expressed as % of t70% solvent (Schuurkes et al, 1992).

Sequence of 5 HT4 receptor (Q13639 whole entry): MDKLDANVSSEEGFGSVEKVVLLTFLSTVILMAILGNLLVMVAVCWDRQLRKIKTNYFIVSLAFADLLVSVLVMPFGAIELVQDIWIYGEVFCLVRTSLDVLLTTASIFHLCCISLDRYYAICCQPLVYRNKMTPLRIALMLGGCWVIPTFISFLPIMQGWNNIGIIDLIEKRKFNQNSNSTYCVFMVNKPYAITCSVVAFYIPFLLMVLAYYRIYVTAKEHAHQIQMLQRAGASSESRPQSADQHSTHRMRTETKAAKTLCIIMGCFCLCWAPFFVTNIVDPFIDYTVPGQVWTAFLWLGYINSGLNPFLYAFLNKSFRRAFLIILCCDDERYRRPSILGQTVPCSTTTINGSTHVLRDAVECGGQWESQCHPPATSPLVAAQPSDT

Compound: Nc1c(Cl)cc(C(=O)OCC2CCN(Cc3cccnc3)CC2)c2c1OCCO2 [5-(1-(3-pyridylmethyl)-4-piperidinyl)methyl-8-amino-7-chloro-1,4-benzo-dioxancarboxylate]
5 HT4 receptor activity (agonistic / antagonistic) (5 HT4 receptor): 5 HT4 receptor antagonistic activity

Compound: CCCCN1CCC(COC(=O)c2cc(Cl)c(N)c3c2OCC3)CC1.Cl [(1-butyl-4-piperidinyl)methyl-4-amino-5-chloro-2,3-dihydrobenzo[b]furan-7-carboxylate hydrochloride]
5 HT4 receptor activity (agonistic / antagonistic) (5 HT4 receptor): 5 HT4 receptor agonistic activity

Compound: CCCCN1CCC(COC(=O)c2cc(Cl)c(N)c3c2OCCO3)CC1 [(1-butyl-4-piperidinyl)methyl 8-amino-7-chloro-1,4-benzodioxan-5-carboxylate]
5 HT4 receptor activity (agonistic / antagonistic) (5 HT4 receptor): 5 HT4 receptor antagonistic activity

melting point: 140 °C
Compound: COc1cc(N)c(Cl)cc1C(=O)OCC1CCN(CCCOc2ccc(F)cc2)CC1 [Compound 1, [1-[3-(4-fluorophenoxy)propyl]-4-piperidinyl]methyl 4-amino-5-chloro-2-methoxybenzoate]

Compound: CCCCN1CCC(OC(=O)c2cc(Cl)c(N)c3c2OCCO3)CC1 [8-amino-7-chloro-1,4-benzodioxan-5-(1-butyl-4-piperidinyl)carboxylate]
5 HT4 receptor activity (agonistic / antagonistic) (5 HT4 receptor): 5 HT4 receptor antagonistic activity

Compound: CCCCN1CCC(COC(=O)c2cc(Cl)c(N)c3c2OCCC3)CC1.Cl [(1-butyl-4-piperidinyl)methyl-5-amino-6-chloro-3,4-dihydro-2-H-1-benzopyran-8-carboxylate hydrochloride]
5 HT4 receptor activity (agonistic / antagonistic) (5 HT4 receptor): 5 HT4 receptor antagonistic activity

Compound: Cc1nccnc1NCCN1CCC(COC(=O)c2cc(Cl)c(N)c3c2OC(C)(C)C3)CC1 [Compound 6, [1-[2-[(3-methyl-2-pyrazinyl)amino]ethyl]-4-piperidinyl]methyl 4-amino-5-chloro-2,3-dihydro-2,2-dimethyl-7-benzofurancarboxylate]
Acceleration (Δt/t) (conscious dogs): −0.41

Compound: CCOC(=O)CCN1CCC(COC(=O)c2cc(Cl)c(N)c3c2OCCO3)CC1 [[1-(2-carbo-ethoxyethyl)-4-piperidinyl]methyl-8-amino-7-chloro-1,4-benzodioxan-5-carboxylate]
5 HT4 receptor activity (agonistic / antagonistic) (5 HT4 receptor): 5 HT4 receptor antagonistic activity

Compound: CC(O)CCN1CCC(COC(=O)c2cc(Cl)c(N)c3c2OCCO3)CC1 (stereo not drawn) [[1-(3-hydroxybutyl)-4-piperidinyl]methyl-8-amino-7-chloro-1,4-benzodioxan-5-carboxylate]
5 HT4 receptor activity (agonistic / antagonistic) (5 HT4 receptor): 5 HT4 receptor antagonistic activity

Reference: patent publication US6800628B2, “N-substituted 4-((-4′-aminobenzoyl)-oxymethyl)-piperidines having gastric prokinetic properties” (Janssen Pharmaceutica N.V., priority 1996, dated 2004)
